The subject of test [1] is Danio rerio embryo. Particulars: exposure time: 4 dpf. The method, then: (§1)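 Zebrafish embryos (UFZ-OBI strain) were exposed from 2 hpf for 48 h (2 dpf) or 96 h (4 dpf) at 28 °C; spontaneous tail coiling was scored at 25 hpf. Morphological features from automated image analysis (FishInspector), heart rate and locomotor response were fitted with drc models. Quantal endpoints were dichotomised at 2.5 SD from controls and fitted with a log-logistic model; heart rate, pigmentation and STC were normalised to the replicate control mean. Betamethasone was tested as betamethasone dipropionate, diflorasone as diflorasone diacetate.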

Test [2] concerns Danio rerio embryo. As for the experimental part: as §1
The subject of test [3] is Danio rerio embryo. The method, then:
as §1
This is another data set of the same source.

Test [4] deals with Danio rerio embryo. Briefly: EC50 Eye size_Decrease. As for the experimental part:
as §1

The test system of test [5] is Danio rerio embryo. Briefly: EC50 Head size_Decrease. The method, then: as §1
Test [6] relates to Danio rerio embryo. Briefly: EC50 Head trunk angle_Decrease. As to conditions: exposure time: 2 dpf. The method, then:
as §1

In test [7] the test system is Danio rerio embryo. Briefly: EC10 Heart rate; higher = less potent. As for the experimental part:
as §1

Test [8] relates to Danio rerio embryo. Briefly: EC10 Lack of SB; higher = less potent. As to conditions: exposure time: 4 dpf. As for the experimental part:
as §1

Test [9] relates to Danio rerio embryo. Briefly: EC20 Lack of SB; higher = less potent. As to conditions: exposure time: 4 dpf. As for the experimental part: as §1
For test [10], the system named is Danio rerio embryo. Briefly: EC20 Heart rate; higher = less potent. The method, then:
as §1

Test [11] deals with Danio rerio embryo. Briefly: EC50 Mandibular arch distance_Decrease. As to conditions: exposure time: 4 dpf. As for the experimental part:
as §1

Test [12] relates to Danio rerio embryo. Briefly: EC20 STC bell shape; higher = less potent. Particulars: exposure time: 25 h. The method, then:
as §1

Test [13] relates to Danio rerio embryo. Description: EC10 STC bell shape; higher = less potent. Particulars: exposure time: 25 h. As for the experimental part:
as §1

Test [14] deals with Danio rerio embryo. Briefly: EC20 Eye size_Decrease; higher = less potent. The method, then:
as §1

Test [15] has as its system Danio rerio embryo. Briefly: EC10 Eye size_Decrease; higher = less potent. As for the experimental part:
as §1

Test [16] has as its system Danio rerio embryo. Description: EC20 Head size_Decrease; higher = less potent. The method, then: as §1
In test [17] the test system is Danio rerio embryo. Briefly: EC10 Head size_Decrease; higher = less potent. As for the experimental part: as §1
Test [18] deals with Danio rerio embryo. Description: EC10 Pigmentation decrease; higher = less potent. The method, then: as §1
The test system of test [19] is Danio rerio embryo. Briefly: EC20 Pigmentation decrease; higher = less potent. As for the experimental part:
as §1

Test [20] has as its system Danio rerio embryo. Description: EC20 Head trunk angle_Decrease; higher = less potent. As to conditions: exposure time: 2 dpf. The method, then:
as §1

The subject of test [21] is Danio rerio embryo. Description: EC20 Mandibular arch distance_Decrease; higher = less potent. As to conditions: exposure time: 4 dpf. The method, then:
as §1

For test [22], the system named is Danio rerio embryo. Briefly: EC10 Mandibular arch distance_Decrease; higher = less potent. Particulars: exposure time: 4 dpf. The method, then: as §1
The test system of test [23] is Danio rerio embryo. Description: EC10 STC decrease; higher = less potent. Particulars: exposure time: 25 h. As for the experimental part:
as §1

In test [24] the test system is Danio rerio embryo. Briefly: EC20 STC decrease; higher = less potent. Particulars: exposure time: 25 h. The method, then: as §1
Test [25] concerns Danio rerio embryo. Briefly: EC10 LMR ligth decrease; higher = less potent. Particulars: exposure time: 4 dpf. The method, then:
as §1

Test [26] deals with Danio rerio embryo. Description: EC20 LMR ligth decrease; higher = less potent. Particulars: exposure time: 4 dpf. As for the experimental part: as §1

For `CCCCC(O)(Cn1cncn1)c1ccc(Cl)cc1Cl` (configuration not stated) [Hexaconazole], the “EC50 Lack of SB” value with Danio rerio embryo [1] stood at 10.3 µM. The “EC50 Pigmentation decrease” value in the test on Danio rerio embryo [2] (exposure time: 2 dpf) was 22.6 µM. Moreover, the “EC50 Heart rate” value with Danio rerio embryo [3] (exposure time: 2 dpf) is 39.8 µM. The “EC50 Eye size Decrease” value in the test on Danio rerio embryo [4] (exposure time: 2 dpf) turned out to be 56.1 µM; in the test with Danio rerio embryo [4] (exposure time: 4 dpf), 15.1 µM. Besides, the “EC50 Head size Decrease” value in the test with Danio rerio embryo [5] (exposure time: 2 dpf) came to 54.3 µM. Besides, in the test with Danio rerio embryo [6], the “EC50 Head trunk angle Decrease” value was 23.3 µM. The “EC10 Heart rate” value is 8.31 µM in the test on Danio rerio embryo [7] (exposure time: 2 dpf) and 5.53 µM with Danio rerio embryo [7] (exposure time: 4 dpf). Further, the “EC10 Lack of SB” value in the test on Danio rerio embryo [8] was 6.28 µM. Further, in the test on Danio rerio embryo [9], the “EC20 Lack of SB” value turned out to be 7.52 µM. Moreover, the “EC20 Heart rate” value in the test on Danio rerio embryo [10] (exposure time: 2 dpf) turned out to be 14.8 µM; in the test on Danio rerio embryo [10] (exposure time: 4 dpf), 11.1 µM. Moreover, in the test with Danio rerio embryo [11], the “EC50 Mandibular arch distance Decrease” value was determined as 37.1 µM. In the test on Danio rerio embryo [12], the “EC20 STC bell shape” value stood at 19.2 µM. For the same compound, the “EC10 STC bell shape” value in the test on Danio rerio embryo [13] is 17.5 µM. In addition, the “EC20 Eye size Decrease” value came to 48.8 µM with Danio rerio embryo [14] (exposure time: 2 dpf) and 12.2 µM in the test on Danio rerio embryo [14] (exposure time: 4 dpf). Moreover, the “EC10 Eye size Decrease” value with Danio rerio embryo [15] (exposure time: 2 dpf) turned out to be 44.9 µM; with Danio rerio embryo [15] (exposure time: 4 dpf) it was 10.7 µM. Further, the “EC20 Head size Decrease” value in the test on Danio rerio embryo [16] (exposure time: 2 dpf) was 40.3 µM. Besides, the “EC10 Head size Decrease” value with Danio rerio embryo [17] (exposure time: 2 dpf) stood at 33.8 µM. In addition, in the test with Danio rerio embryo [18] (exposure time: 2 dpf), the “EC10 Pigmentation decrease” value came out at 17.8 µM. Further, the “EC20 Pigmentation decrease” value with Danio rerio embryo [19] (exposure time: 2 dpf) is 19.4 µM. Further, in the test with Danio rerio embryo [20], the “EC20 Head trunk angle Decrease” value was 16 µM. The “EC20 Mandibular arch distance Decrease” value in the test on Danio rerio embryo [21] was 24.9 µM. For the same compound, the “EC10 Mandibular arch distance Decrease” value in the test on Danio rerio embryo [22] worked out at 19.8 µM.
Regarding `CCOC(=O)N1CCC(=C2c3ccc(Cl)cc3CCc3cccnc32)CC1` [Loratadine], the “EC50 Lack of SB” value in the test on Danio rerio embryo [1] is 0.282 µM. In the test with Danio rerio embryo [2] (exposure time: 4 dpf), the “EC50 Pigmentation decrease” value turned out to be 9.57 µM. Moreover, the “EC50 Heart rate” value in the test on Danio rerio embryo [3] (exposure time: 2 dpf) stood at 14.8 µM; in the test on Danio rerio embryo [3] (exposure time: 4 dpf) it was 7.03 µM. In addition, the entries for the “EC50 Eye size Decrease” value in the test with Danio rerio embryo [4] (exposure time: 2 dpf) and in the test on Danio rerio embryo [4] (exposure time: 4 dpf) were 8.45 µM and 6.82 µM, respectively. The “EC50 Head size Decrease” value stood at 12.7 µM in the test with Danio rerio embryo [5] (exposure time: 2 dpf) and 14.1 µM with Danio rerio embryo [5] (exposure time: 4 dpf). In the test with Danio rerio embryo [6], the “EC50 Head trunk angle Decrease” value was found to be 7.05 µM. Further, the “EC10 Heart rate” value in the test on Danio rerio embryo [7] (exposure time: 2 dpf) was 1.01 µM; in the test on Danio rerio embryo [7] (exposure time: 4 dpf), 1.1 µM. In the test with Danio rerio embryo [8], the “EC10 Lack of SB” value turned out to be 0.167 µM. Besides, the “EC20 Lack of SB” value in the test on Danio rerio embryo [9] was determined as 0.202 µM. Moreover, the “EC20 Heart rate” value in the test with Danio rerio embryo [10] (exposure time: 2 dpf) turned out to be 2.72 µM; in the test with Danio rerio embryo [10] (exposure time: 4 dpf), 2.18 µM. In the test with Danio rerio embryo [23], the “EC10 STC decrease” value was determined as 3.8 µM. Moreover, the “EC20 STC decrease” value in the test on Danio rerio embryo [24] stood at 4.66 µM. For the same compound, the “EC20 Eye size Decrease” value came out at 6.71 µM in the test with Danio rerio embryo [14] (exposure time: 2 dpf) and 5.96 µM with Danio rerio embryo [14] (exposure time: 4 dpf). Moreover, the results for the “EC10 Eye size Decrease” value in the test with Danio rerio embryo [15] (exposure time: 2 dpf) and in the test on Danio rerio embryo [15] (exposure time: 4 dpf) were 5.86 µM and 5.5 µM, respectively. Also, the figures for the “EC20 Head size Decrease” value in the test with Danio rerio embryo [16] (exposure time: 2 dpf) and with Danio rerio embryo [16] (exposure time: 4 dpf) were 4.61 µM and 8.95 µM, respectively. Moreover, the “EC10 Head size Decrease” value with Danio rerio embryo [17] (exposure time: 2 dpf) was 2.55 µM; in the test on Danio rerio embryo [17] (exposure time: 4 dpf), 6.85 µM. For the same compound, the “EC10 Pigmentation decrease” value in the test with Danio rerio embryo [18] (exposure time: 4 dpf) came out at 8.11 µM. In addition, the “EC20 Pigmentation decrease” value with Danio rerio embryo [19] (exposure time: 4 dpf) turned out to be 8.62 µM. In addition, the “EC20 Head trunk angle Decrease” value in the test with Danio rerio embryo [20] was 5.06 µM.
`CN(Cc1cnc2nc(N)nc(N)c2n1)c1ccc(C(=O)N[C@@H](CCC(=O)O)C(=O)O)cc1` [Methotrexate]: the “EC50 Lack of SB” value in the test with Danio rerio embryo [1] was determined as 108 µM. For the same compound, in the test on Danio rerio embryo [4] (exposure time: 4 dpf), the “EC50 Eye size Decrease” value stood at 162 µM. In the test with Danio rerio embryo [6], the “EC50 Head trunk angle Decrease” value was 252 µM. Moreover, in the test on Danio rerio embryo [8], the “EC10 Lack of SB” value worked out at 82.2 µM. Also, in the test with Danio rerio embryo [9], the “EC20 Lack of SB” value is 91 µM. Further, the “EC20 Eye size Decrease” value with Danio rerio embryo [14] (exposure time: 4 dpf) worked out at 116 µM. Further, in the test on Danio rerio embryo [15] (exposure time: 4 dpf), the “EC10 Eye size Decrease” value was determined as 96.2 µM. Further, the “EC10 LMR ligth decrease” value in the test with Danio rerio embryo [25] is 32.5 µM. In addition, the “EC20 LMR ligth decrease” value in the test with Danio rerio embryo [26] worked out at 53.8 µM. Also, the “EC10 Pigmentation decrease” value in the test with Danio rerio embryo [18] (exposure time: 2 dpf) came out at 185 µM. Also, the “EC20 Pigmentation decrease” value in the test on Danio rerio embryo [19] (exposure time: 2 dpf) stood at 235 µM. Further, the “EC20 Head trunk angle Decrease” value with Danio rerio embryo [20] was found to be 180 µM.

These data come from the supplement of paper PMC9013687.
